Experimental data reported in PMC8244912, “An oxytocin/vasopressin-related neuropeptide modulates social foraging behavior in the clonal raider ant” (PLoS Biology, 2021).
Entries after “also recorded” stand apart in the source; their conditions may differ. Where a SMILES comes first, the peptide text is derived from it. Bridges are numbered along the chain shown (N, C = ends).

Assays:
[1] = system: HEK293T cells transfected with an empty vector; assay: Calcium imaging (fura-2), empty vector; format: cell-based, human
Protocol: (§1) Experiments were conducted following Garrison J.L., et al 2012 [8] with modifications. Human embryonic kidney 293T cells (HEK293T) were cultured in DMEM and supplemented with 10% FBS at 37 °C in a cell incubator containing 5% CO^2. Cells were grown in 35 mm MatTek glass bottom dishes to a level of 60 – 70% confluency. Cells were transfected with a 1:1 ratio of PCDNA3.3 containing ~ 1μg of itcR cDNA (full-length isoform A or truncated isoform H) (See S1 Fig for isoforms) and pcDNA3-alpha 16 (encoding promiscuous G protein 16) using Lipofectamine 2000. Cells were incubated for 24 h at 37 °C and then transferred to 28 °C for another 16-24 h. For control experiments, empty vector was also transfected. On the day of the experiment, the cells were loaded with […] fura-2/AM (Invitrogen) for 25 min at 37 °C. Inotocin peptide diluted in Ringer’s solution was applied to the cells for 15 s with a peristaltic pump, and fluorescence at 510 nm was monitored (excitation at 340/380 nm) using a MetaFluor calcium imaging system with a Nikon Eclipse TE2000U microscope.

Ooceraea biroi ants = assay: Pharmacological immersion, mixed-age colonies: ants outside the nest (S9 Fig); format: in vivo; conditions: immersion in 1 mM; mixed-age colonies with larvae; 5 hours; n = 6; p = 0.0002, extra sum-of-squares F-test
Source text: Mature O. biroi inotocin peptide (CLITNCPRG) was synthesized and cyclized at The Rockefeller University Proteomics Resource Center, along with a scrambled version of the peptide (NRPCGLTCI) as a negative control with identical amino acid composition.
For the initial experiment (S9 Fig), we set up 6 experimental colonies of line B ants that were color tagged as previously described. Each colony consisted of 16 ants in an airtight Petri dish with a 5-cm diameter; 8 age-matched 4-week-old and 8 age-matched approximately 20-week-old ants. We added ten 3- to 4-day-old larvae to the colonies. We used Logitech (Lausanne, Switzerland) C910 USB cameras to record 5 hours after the treatments, and we used ImageJ to split the videos in batches of 5,000 frames (corresponding to 18.75-minute intervals). We sampled every 10th frame from the 5,000 frames and overlaid the resulting 500 frames into a single image using ImageJ. In each image, we manually counted the number of instances of ants that were outside the nest as a proxy for foraging behavior. Color tagging was used to differentiate inotocin treated from mock treated and untreated ants. The nest was defined as a region of high density of ants in the 500 image projections.
On the day of the experiment, colonies were not fed. To avoid disturbance to the colony as much as possible, half the colony was left untreated, and half was treated. […]

[2] = system: O. biroi inotocin receptor (itcR); assay: Calcium flux, inotocin receptor co-transfected with G proteins or empty vector; format: cell-based, Ooceraea biroi
Protocol: Human embryonic kidney 293T (HEK293T) cells were cultured in DMEM supplemented with 10% FBS at 37°C in a tissue culture incubator with a humidified atmosphere containing 5% CO2. Cells were plated in 10-cm dishes, and, when they reached 60% to 70% confluency, they were transfected with a pcDNA3.3 vector containing approximately 1 ng of inotocin receptor cDNA or an empty vector as a control using Lipofectamine 2000. Cells were transfected directly into poly-D-lysine–coated 384-well plates and incubated for 48 hours at 37°C. Subsequently, cells were incubated with FLIPR Calcium 4 Assay kit dye for 1 hour in the incubator. The fluorescence (excitation, 488 nm; emission, 530 nm) of the wells was recorded using a Flex Station II 384 (Molecular Devices, San Jose, California, USA), and a dose curve of inotocin (0 to 3 μM) was applied to the wells, in sextuplicate (see below for inotocin peptide synthesis). We calculated the EC50 values using Prism (GraphPad Software version 8) nonlinear regression, 4-parameter logistic curve fit. Dose curves were repeated at least 3 times on independently prepared samples and different days. Results were consistent across replicates, and example dose curves are shown in Fig 1C and S4A Fig. Control experiments are shown in S2–S5 Figs.
(C and D) Co-transfection with Gq alpha 16. (E and F) Co-transfection with Gq alpha with Gi alpha C term chimera. […]

[3] = system: O. biroi inotocin receptor splice variant ObiroiItr_H (lacks TM4-7); assay: Calcium imaging (fura-2), truncated receptor isoform H; format: cell-based, Ooceraea biroi
Protocol: The full-length inotocin receptor cDNA sequence that was cloned and used for calcium assays is ObiroiItr_A (GenBank MW660838; for protein sequence, see S1 Fig). We also tested splice variant ObiroiItr_H (GenBank MW660845; for protein sequence, see S1 Fig), which lacks TM4-7, for calcium activity.
as §1

In the case of CC[C@H](C)[C@@H]1NC(=O)[C@H](CC(C)C)NC(=O)[C@@H](N)CSSC[C@@H](C(=O)N2CCC[C@H]2C(=O)N[C@@H](CCCNC(=N)N)C(=O)NCC(N)=O)NC(=O)[C@H](CC(N)=O)NC(=O)[C@H]([C@@H](C)O)NC1=O [Inotocin] (H-CLITNCPRG-NH2; disulfide 1-6; N-terminus and C-terminus assumed), the “calcium signal” value [1] is reported as “No calcium signal is detected”, the “time/instances outside the nest vs scrambled control peptide” value (Ooceraea biroi ants) is reported as “spent more time outside the nest than controls; also recorded: foraged more when treated with inotocin than when treated with the control peptide” and the “calcium response” value ([2]; co-transfection with Gq alpha 16, Gq alpha with Gi alpha C term chimera, or Gq alpha with Go alpha C term chimera compared with empty vector) is reported as “does not require co-transfection with a G-protein”. For the same compound, the “calcium response” value ([2]; itcR co-transfected with empty vector (no G protein), 28°C or constantly 37°C) was “response in a dose dependent manner; also recorded: show calcium responses when stimulated with inotocin” and the “calcium signal” value [3] was “no response to inotocin; also recorded: No calcium signal is detected; also recorded: does not respond to inotocin”.
